Experimental data published in patent US20250034139A1, “AMINE COMPOUNDS HAVING ANTI-INFLAMMATORY, ANTIFUNGAL, ANTIPARASITIC, AND ANTICANCER ACTIVITY” (PHARMA CINQ, LLC, priority 2013, published 2025).
Read-outs that look alike come from different tables or passages of the source.

Legend:
[1] = test system: 4T1 mouse mammary breast cancer cells; assay: Example O: syngeneic 4T1 breast cancer growth in Balb/C mice; format: in vivo; conditions: 4T1 in female Balb/C mice; for Final Tumor Volume: 120 μmol/kg/day oral gavage, day 2 to day 30; for Δ BW % / Final Body Weight / Initial Body Weight: 120 μmol/kg/day oral; for Δ BW %: final vs initial body weight; for Final Body Weight: in g (unit assumed); for Initial Body Weight: initial (baseline)
How it was run: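 Syngeneic 4T1 tumors in immunocompetent Balb/C mice; compounds dosed orally by gavage in 1% HPMC, 120 μmol/kg/day, from day 2 to day 30. Tumor growth by caliper twice weekly plus tumor weight at necropsy; body weight monitored.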

[2] = test system: imiquimod-induced dermatitis; conditions: for Ear thickness, Mean ± SEM: imiquimod-treated mice; for PASI Score, Mean ± SEM: scale 0-12
Description: Topical imiquimod (IMQ), a toll-like receptor agonist, has been established as a model of Inflammatory skin diseases including psoriasis and atopic dermatitis. Dermal inflammatory changes and gene expression in mice treated with topical imiquimod mimic human psoriasis and dermatitis (van der Fits et al., 2009; Swindell et al., 2011). The effect of a set of compounds of the invention were tested in a mouse model of imiquimod-induced dermatitis, with topical tacrolimus and dexamethasone as comparators for assessing safety and efficacy relative to standard agents used to treat dermatitis in humans.
Commercial 0.1% tacrolimus ointment (ProTopic™[…]) was also used as an active comparator. Petrolatum containing 10% ethanol was used as a control treatment.
Female Balb/C mice (8 weeks old) were randomized and divided into groups of 5 animals each. Polyethylene collars were affixed to the mice to prevent them from easily scratching their ears. 5% imiquimod was applied to both ears of each mouse (20 microliters per ear) daily for 5 days, and then every other day for the full duration of the study. […] On day 7 after initiation of imiquimod, treatment with topical agents was started. Both ears of each mouse were treated with test ointments, with one compound per mouse.
Ear thickness and PASI assessments (Psoriasis Area and Severity Index, a standard psoriasis scoring system) were recorded twice per week throughout the study. The PASI score comprises the sum of evaluations of swelling, erythema and scaling on scales from 0 to 4; the maximum PASI score is 12, and the minimum, in unaffected skin, is 0).

[3] = test system: C. neoformans (serotype A) phagocytosed by THP-1-derived macrophages; assay: Example M: phagocytosed Cryptococcus neoformans antifungal screen in THP-1-derived macrophages; format: cell-based; conditions: for inhibition of fungal growth after phagocytosis and lysis, in words: 0.5, 1 or 2 μM; for IC50: after macrophage phagocytosis and lysis
Description: Two concentrations of macrophages (1×10^5 and 2×10^5/well) and a high concentration of C. neoformans (4×10^6/well) (MOI values of 40 and 20 respectively) were tested in this experiment.
THP-1 cells were adjusted to 5×10^5/ml or 1×10^6/ml in cRPMI+PMA
200 μl was transferred to a flat-bottomed 96-well dish (1×10^5 and 2×10^5/well) (48 hrs at 37 C) Media was removed and fresh cRPMI+PMA added (further 24 hrs at 37 C)
C. neoformans cells in DPBS were opsonized with human serum (60 mins at 30 C)
The opsonized yeast was washed (DPBS) and resuspended at 1×10^7/ml or 2×10^7/ml in cRPMI. 100 μl added to macrophage plate (1×10^6 and 2×10^6/well) (4 hrs at 37 C) washed ×4 with DPBS 100 μl of cRPMI was added to each well (18 hrs at 37 C) Compound AC was added to some wells. Media was removed, no wash, 25 μl 0.05% Triton X-100 added to lyse cells (3 mins RT rocking) 125 μl YPD broth was added and the plate incubated (24 hrs at 30 C then 24 hrs at 37 C) C. neoformans growth was determined on a Spectrophotometer (600 nm) after 24 and 48 hours
THP-1 cells (p15) grown in cRPMI [RPMI (Lonza 12-115F) plus 10% ΔFBS (Lonza DE14-701F)] were counted on a hemacytometer. Cells were spun at 1,800 rpm, RT for 5 mins, supernatant aspirated, pellet disturbed then adjusted to 5.0×10^5/ml and 1.0×10^6/ml in cRPMI supplemented with 0.2 μg/ml phorbol 12-myristate 13-acetate (PMA) (1 mg/ml in DMSO Sigma P8139). 200 μl aliquots of each cell concentration were transferred to […] (half a plate) of a flat-bottomed 96-well dish (1×10^5 and 2×10^5/well) and placed in a 37 C incubator for 48 hours, media was then removed and 200 μl of fresh cRPMI+PMA added. The plate was incubated for an additional 24 hours at 37 C then processed for yeast uptake.
In parallel to macrophage preparation, C. neoformans cells were grown from a single colony in 20 ml YPD broth at 30 C overnight. Absorbance of 1:10 dilution of the overnight (ON) culture gave 0.89 OD at 600 nm. Estimated concentration of this stock was 4×10^8 cells/ml (2×10^8 cells/ml gave an OD 600 nm of 0.426 in an earlier study Cryptococcus macrophage development plate 3 ML113012). The cells were washed with DPBS once and resuspended in 2 ml DPBS. 230 μl of this stock (˜60×10^7 cells) was brought up to 500 μl with DPBS in an Eppendorf tube. For opsonization, 500 μl of human serum (SIGMA S7023) was added and the tube incubated at 30 C for 60 mins with orbital shaking. […] A 1:200 dilution of cells was counted (4.25×10^6/ml), equivalent to 8.5×10^8/ml for the 1× stock. 470 μl of the 1× stock was brought up to 10 ml with cRPMI for a final concentration of 4×10^7/ml.
Media was aspirated from the prepared macrophage plate and 100 μl of the opsonized fungal cell suspension added to the wells. Media without yeast was added to triplicate wells for each macrophage concentration to provide background readings. Three empty wells (no macrophages) were seeded with fungus to serve as the wash control. The plates were then incubated at 37 C for 4 hours then washed 4 times with DPBS (plates were shakes briefly after addition of DPBS to increase wash efficiency). 144 μl of cRPMI was added to each well and 6 μl of 12.5 μM, 25 μM and 50 μM stocks of compounds AM, BM, AH, and AC added in triplicate for final concentrations of 0.5 μM, 1 μM or 2 μM. The plate was incubated at 37 C, 5% CO2 for 18 hours. Media was removed, 25 μl of 0.05% Triton X-100 (SIGMA T-9284) in DPBS was added to each well and the plate rocked at RT for 3 min, to lyse the cells. 125 μl YPD broth (KD Medical YLF-3260) was then added to each well and the plate placed in a 30 C incubator. C. neoformans cell growth was determined by measuring absorbance at 600 nm on a Spectrophotometer (Spectra Max Plus using program SoftMax Pro) after […].

[4] = topical ointment 0.06% active drug (dexamethasone 0.03%, tacrolimus 0.1%)
[5] = Cryptococcus neoformans, read-out: IC50 value (μM) for inhibition of fungal growth, 1 × 10^5 macrophages
[6] = Cryptococcus neoformans, read-out: IC50 value (μM) for inhibition of fungal growth, 2 × 10^5 macrophages

Compound | Final Tumor Volume [1] [mm^3] | Δ BW % [1] [%] | Final Body Weight [1] | Initial Body Weight [1] [g] | Ear thickness, Mean ± SEM [2, 4] | Body Weight (mean ± SEM), Final ([2]; mouse, in vivo) [g] | Body Weight (mean ± SEM), Initial ([2]; mouse, in vivo) [g] | D BW (g) ([2]; mouse, in vivo) | PASI Score, Mean ± SEM [2, 4] | Ear thickness, Mean ± SEM ([2]; topical ointment AF 0.6%) | D BW ([2]; mouse, in vivo) [g] | Hair growth on the imiquimod-affected head area, in words ([2]; mouse, in vivo) | PASI Score, Mean ± SEM ([2]; topical ointment AF 0.6%) | inhibition of fungal growth after phagocytosis and lysis, in words [3] | IC50 [3, 5] [µM] | IC50 [3, 6] [µM] | inhibition at 2 µM ([3]; Cryptococcus neoformans, Macrophage, at 2 μM, after phagocytosis, read-out: inhibition of the fungal growth) [%]
CCCCCCOc1ccc(CNc2ccnc3ccccc23)cc1 [AA, N-[4-(Hexyloxy)benzyl]quinolin-4-amine] | 563 ± 175 | −5.1 | 20.3 ± 1.3 | 21.4 ± 1.0 | – | – | – | – | – | – | – | – | – | – | – | – | –
COc1ccc(OCCCCCCCCNc2ncnc3ccccc23)cc1 [AE, N-[8-(4-Methoxyphenoxy)octyl]quinazolin-4-amine] | – | – | – | – | 0.846 ± 0.023 | 21.3 ± 0.4 | 20.9 ± 0.5 | +0.4 g | 11.550 ± 0.281 | – | – | – | – | – | – | – | –
c1ccc(Oc2cccc(CNc3ccnc4ccccc34)c2)cc1 [AF, N-(3-Phenoxybenzyl)quinolin-4-amine] | – | – | – | – | 0.355 ± 0.005 | – | – | +0.4 g | 3.575 ± 0.158 | 0.390 ± 0.008 | -0.4 | hair growth was maintained | 4.875 ± 0.155 | – | – | – | –
CCCCOCCCCCCCCCCNc1ccnc2ccccc12 [AM, N-(10-Butoxydecyl)quinolin-4-amine] | – | – | – | – | – | – | – | – | – | – | – | – | – | clear dose dependent inhibition of fungal growth after phagocytosis and lysis | 1.13 | 0.85 | –
c1ccc(Oc2cccc(CNc3ncnc4ccccc34)c2)cc1 [BM, N-(3-Phenoxybenzyl)quinazolin-4-amine] | – | – | – | – | 0.577 ± 0.019 | 20.9 ± 0.6 | 20.8 ± 0.7 | +0.1 g | 9.250 ± 0.183 | – | – | – | – | clear dose dependent inhibition of fungal growth after phagocytosis and lysis | 1.8 | 1.31 | –
CCCCCCOc1cccc(CNc2ccnc3ccccc23)c1 [Compound AC, N-[3-(Hexyloxy)benzyl]quinolin-4-amine] | 723 ± 185 | −8.4 | 19.7 ± 1.1 | 21.5 ± 1.0 | 0.501 ± 0.030 | 21.3 ± 0.6 | 21.1 ± 0.7 | +0.2 g | 7.150 ± 0.221 | – | – | – | – | clear dose dependent inhibition of fungal growth after phagocytosis and lysis | 1.29 | 1.35 | –
CCCCCCCCCCNc1ncnc2ccccc12 [Compound AH, N-(Decyl)quinazolin-4-amine] | – | – | – | – | – | – | – | – | – | – | – | – | – | clear dose dependent inhibition of fungal growth after phagocytosis and lysis | 0.29 | 0.25 | ~100
